Measured values reported in patent US12479847B2 (DANA-FARBER CANCER INSTITUTE, INC., priority 2019, dated 2025).
Read-outs that look alike come from different tables or passages of the source.

Assays:
Test in all cases: KINOMEscan (ScanMAX) kinase profiling
Assay type in all cases: binding
panel of 468 kinases [1] = target: T1, panel of 468 kinases (Homo sapiens, UniProt P36888); settings: 1 μM, read-out: % control
T1 construct: purchased KINOMEscan (ScanMAX) service
T1 sequence (P36888 27-993): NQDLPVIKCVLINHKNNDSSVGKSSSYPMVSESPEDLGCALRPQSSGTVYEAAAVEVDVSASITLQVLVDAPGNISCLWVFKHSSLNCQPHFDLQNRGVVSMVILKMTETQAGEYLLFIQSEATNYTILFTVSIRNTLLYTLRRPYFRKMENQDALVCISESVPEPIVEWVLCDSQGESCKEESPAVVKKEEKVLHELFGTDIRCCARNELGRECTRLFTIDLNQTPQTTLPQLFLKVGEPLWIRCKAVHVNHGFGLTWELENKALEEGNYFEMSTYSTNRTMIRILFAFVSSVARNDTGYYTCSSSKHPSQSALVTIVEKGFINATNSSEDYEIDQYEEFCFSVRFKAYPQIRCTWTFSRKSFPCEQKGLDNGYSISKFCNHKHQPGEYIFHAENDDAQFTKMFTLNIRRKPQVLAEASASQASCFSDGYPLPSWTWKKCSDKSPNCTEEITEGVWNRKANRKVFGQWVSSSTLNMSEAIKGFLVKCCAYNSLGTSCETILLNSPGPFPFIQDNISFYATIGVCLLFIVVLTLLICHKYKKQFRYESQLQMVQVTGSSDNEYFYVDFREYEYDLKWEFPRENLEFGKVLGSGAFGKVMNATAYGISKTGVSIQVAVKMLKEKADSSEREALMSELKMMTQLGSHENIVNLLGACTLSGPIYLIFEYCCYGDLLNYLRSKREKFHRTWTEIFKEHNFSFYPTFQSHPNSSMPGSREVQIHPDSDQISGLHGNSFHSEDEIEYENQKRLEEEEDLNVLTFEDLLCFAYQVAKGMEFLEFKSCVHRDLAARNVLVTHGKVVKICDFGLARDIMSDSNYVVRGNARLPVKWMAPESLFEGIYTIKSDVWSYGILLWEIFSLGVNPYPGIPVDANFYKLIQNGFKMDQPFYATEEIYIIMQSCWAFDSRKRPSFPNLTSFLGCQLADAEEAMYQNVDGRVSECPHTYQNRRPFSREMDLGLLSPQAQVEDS

panel of 468 kinases [2] = target: T2, panel of 468 kinases (Homo sapiens, UniProt Q9UIK4); settings: DAPK2; 1 μM; read-out: % control
T2 construct: purchased KINOMEscan (ScanMAX) service
T2 sequence (Q9UIK4 whole entry): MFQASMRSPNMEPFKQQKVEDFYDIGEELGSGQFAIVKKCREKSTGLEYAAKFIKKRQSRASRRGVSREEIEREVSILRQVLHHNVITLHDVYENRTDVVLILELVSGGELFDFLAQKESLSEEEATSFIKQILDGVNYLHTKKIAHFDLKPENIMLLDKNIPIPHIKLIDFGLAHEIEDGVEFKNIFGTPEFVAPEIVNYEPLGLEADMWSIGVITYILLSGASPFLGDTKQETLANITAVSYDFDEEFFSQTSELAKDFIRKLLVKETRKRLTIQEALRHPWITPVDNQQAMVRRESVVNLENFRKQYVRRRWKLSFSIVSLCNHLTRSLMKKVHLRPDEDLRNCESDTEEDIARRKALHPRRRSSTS

panel of 468 kinases [3] = target: T3, panel of 468 kinases (Homo sapiens, UniProt P00533, L858R/T790M); settings: EGFR(L858R,T790M); 1 μM; read-out: % control
T3 construct: purchased KINOMEscan (ScanMAX) service
T3 sequence (P00533 25-1210 T790M/L858R): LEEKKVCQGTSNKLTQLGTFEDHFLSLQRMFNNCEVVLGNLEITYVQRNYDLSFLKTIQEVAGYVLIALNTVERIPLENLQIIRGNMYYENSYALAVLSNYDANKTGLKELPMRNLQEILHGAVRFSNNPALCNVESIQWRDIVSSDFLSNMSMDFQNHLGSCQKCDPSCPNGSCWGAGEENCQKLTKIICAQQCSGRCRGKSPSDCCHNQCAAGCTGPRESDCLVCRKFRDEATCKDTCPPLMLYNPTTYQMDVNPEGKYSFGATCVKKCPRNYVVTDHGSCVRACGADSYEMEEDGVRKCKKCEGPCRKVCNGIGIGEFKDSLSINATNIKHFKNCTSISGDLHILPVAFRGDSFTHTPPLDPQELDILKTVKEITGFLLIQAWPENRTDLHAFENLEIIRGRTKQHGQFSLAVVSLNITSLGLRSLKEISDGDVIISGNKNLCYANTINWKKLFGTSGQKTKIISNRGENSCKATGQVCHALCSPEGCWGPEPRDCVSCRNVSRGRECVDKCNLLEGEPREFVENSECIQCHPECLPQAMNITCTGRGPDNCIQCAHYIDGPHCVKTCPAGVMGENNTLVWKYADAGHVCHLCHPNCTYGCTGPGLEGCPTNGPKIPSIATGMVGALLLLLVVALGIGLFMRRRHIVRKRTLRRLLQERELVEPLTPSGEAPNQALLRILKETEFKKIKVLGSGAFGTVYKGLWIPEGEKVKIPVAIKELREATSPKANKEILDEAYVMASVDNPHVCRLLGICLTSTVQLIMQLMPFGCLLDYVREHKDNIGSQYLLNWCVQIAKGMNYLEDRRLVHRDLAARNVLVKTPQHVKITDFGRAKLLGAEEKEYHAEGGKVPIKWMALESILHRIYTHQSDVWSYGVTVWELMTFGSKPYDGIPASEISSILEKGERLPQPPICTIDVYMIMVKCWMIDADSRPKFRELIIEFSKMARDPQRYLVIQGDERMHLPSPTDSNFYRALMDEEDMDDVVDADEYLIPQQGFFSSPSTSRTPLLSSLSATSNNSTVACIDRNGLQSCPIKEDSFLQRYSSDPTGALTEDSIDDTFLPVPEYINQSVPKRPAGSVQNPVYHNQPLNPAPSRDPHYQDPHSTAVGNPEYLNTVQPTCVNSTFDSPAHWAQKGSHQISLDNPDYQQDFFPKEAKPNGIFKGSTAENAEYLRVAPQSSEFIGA

panel of 468 kinases [4] = target: T4, panel of 468 kinases (Homo sapiens, UniProt P04629); settings: TRKA; 1 μM; read-out: % control
T4 construct: purchased KINOMEscan (ScanMAX) service
T4 sequence (P04629 33-796): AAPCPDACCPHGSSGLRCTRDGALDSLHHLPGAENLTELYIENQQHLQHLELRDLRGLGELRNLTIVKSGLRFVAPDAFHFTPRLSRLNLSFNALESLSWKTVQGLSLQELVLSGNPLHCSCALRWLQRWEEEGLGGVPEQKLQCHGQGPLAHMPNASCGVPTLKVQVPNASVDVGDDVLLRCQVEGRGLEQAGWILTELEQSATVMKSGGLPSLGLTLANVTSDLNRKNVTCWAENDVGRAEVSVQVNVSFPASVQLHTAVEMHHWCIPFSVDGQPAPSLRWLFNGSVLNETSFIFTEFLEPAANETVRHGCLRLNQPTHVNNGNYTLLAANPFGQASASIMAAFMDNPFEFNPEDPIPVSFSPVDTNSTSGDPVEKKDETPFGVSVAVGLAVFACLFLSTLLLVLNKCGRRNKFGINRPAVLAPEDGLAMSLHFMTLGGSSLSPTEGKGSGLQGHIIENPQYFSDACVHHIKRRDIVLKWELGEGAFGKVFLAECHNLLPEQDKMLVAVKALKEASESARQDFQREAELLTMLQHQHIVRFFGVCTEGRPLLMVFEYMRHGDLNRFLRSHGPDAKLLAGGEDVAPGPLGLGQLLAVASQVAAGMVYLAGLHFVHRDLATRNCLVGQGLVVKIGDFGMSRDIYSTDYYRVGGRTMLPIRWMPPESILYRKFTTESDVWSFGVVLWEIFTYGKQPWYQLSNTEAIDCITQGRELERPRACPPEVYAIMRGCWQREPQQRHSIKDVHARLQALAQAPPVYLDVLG

panel of 468 kinases [5] = target: T5, panel of 468 kinases (Homo sapiens, UniProt Q59H18); settings: TNNI3K; 1 μM; read-out: % control
T5 construct: purchased KINOMEscan (ScanMAX) service
T5 sequence (Q59H18 1-835): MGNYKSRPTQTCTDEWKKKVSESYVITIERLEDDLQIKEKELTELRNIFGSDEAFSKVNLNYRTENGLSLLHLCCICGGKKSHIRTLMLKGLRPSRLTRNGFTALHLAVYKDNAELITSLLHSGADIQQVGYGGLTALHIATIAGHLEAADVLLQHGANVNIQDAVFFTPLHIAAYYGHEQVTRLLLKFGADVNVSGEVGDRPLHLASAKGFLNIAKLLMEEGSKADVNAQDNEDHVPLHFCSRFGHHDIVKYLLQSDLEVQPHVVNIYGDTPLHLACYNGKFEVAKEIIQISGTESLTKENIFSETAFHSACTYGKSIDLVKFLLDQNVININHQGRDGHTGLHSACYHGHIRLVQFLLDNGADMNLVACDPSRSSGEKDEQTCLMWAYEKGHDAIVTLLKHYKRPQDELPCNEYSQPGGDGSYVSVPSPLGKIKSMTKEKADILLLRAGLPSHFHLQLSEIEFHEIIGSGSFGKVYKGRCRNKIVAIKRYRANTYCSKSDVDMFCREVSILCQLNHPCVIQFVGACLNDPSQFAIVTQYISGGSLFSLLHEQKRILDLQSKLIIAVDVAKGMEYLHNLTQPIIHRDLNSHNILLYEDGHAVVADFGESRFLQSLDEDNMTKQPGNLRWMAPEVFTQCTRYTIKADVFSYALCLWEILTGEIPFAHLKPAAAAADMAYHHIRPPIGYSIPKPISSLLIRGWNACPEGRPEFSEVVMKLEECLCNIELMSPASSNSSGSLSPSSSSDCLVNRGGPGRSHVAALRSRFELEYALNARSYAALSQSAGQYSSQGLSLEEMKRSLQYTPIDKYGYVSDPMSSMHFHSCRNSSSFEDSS

panel of 468 kinases [6] = target: T6, panel of 468 kinases (Homo sapiens, UniProt P31749); settings: AKT1; 1 μM; read-out: % control
T6 construct: purchased KINOMEscan (ScanMAX) service
T6 sequence (P31749 whole entry): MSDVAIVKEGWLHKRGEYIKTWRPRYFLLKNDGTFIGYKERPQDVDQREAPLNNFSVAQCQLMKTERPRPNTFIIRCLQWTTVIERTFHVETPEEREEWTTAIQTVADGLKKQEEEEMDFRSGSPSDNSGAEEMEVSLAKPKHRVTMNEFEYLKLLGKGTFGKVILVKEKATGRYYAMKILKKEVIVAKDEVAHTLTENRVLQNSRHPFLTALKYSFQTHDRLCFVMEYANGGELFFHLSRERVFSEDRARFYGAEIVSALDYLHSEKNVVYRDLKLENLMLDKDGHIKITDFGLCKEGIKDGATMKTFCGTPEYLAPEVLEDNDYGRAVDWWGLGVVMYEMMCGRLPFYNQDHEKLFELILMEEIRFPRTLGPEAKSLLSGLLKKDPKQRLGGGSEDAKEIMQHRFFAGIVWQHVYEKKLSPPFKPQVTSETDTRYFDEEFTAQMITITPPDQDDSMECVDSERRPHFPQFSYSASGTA

SMILES	remaining binding at 1 µM (panel of 468 kinases [1]; FLT3-autoinhibited)	remaining binding at 1 µM (panel of 468 kinases [1]; FLT3)	remaining binding at 1 µM (panel of 468 kinases [2])	remaining binding at 1 µM (panel of 468 kinases [3])	remaining binding at 1 µM (panel of 468 kinases [4])	remaining binding at 1 µM (panel of 468 kinases [5])	remaining binding at 1 µM (panel of 468 kinases [6])
CNc1nc(Nc2ccc(S(=O)(=O)N3CCC(N4CCOCC4)CC3)cc2OC)nc2[nH]cc(Cl)c12 [Compound 12, 5-chloro-N2-(2-methoxy-4-((4-morpholinopiperidin-1-yl)sulfonyl)phenyl)-N4-methyl-7H-pyrrolo[2,3-d]pyrimidine-2,4-diamine]	87%	100%	29%	66%	100%	100%	100%
CNc1nc(Nc2ccc(P3(=O)CCN(C4CCOCC4)CC3)cc2OC)nc2[nH]cc(Cl)c12 [Compound 77, 4-(4-((5-chloro-4-(methylamino)-7H-pyrrolo[2,3-d]pyrimidin-2-yl)amino)-3-methoxyphenyl)-1-(tetrahydro-2H-pyran-4-yl)-1,4-azaphosphinane 4-oxide]	94%	86%	10%	42%	100%	100%	100%
CNc1nc(Nc2ccc(C(=O)N3CCC(N4CCOCC4)CC3)c3c2OCO3)nc2[nH]cc(Cl)c12 [Compound 75, (7-((5-chloro-4-(methylamino)-7H-pyrrolo[2,3-d]pyrimidin-2-yl)amino)benzo[d][1,3]dioxol-4-yl)(4-morpholinopiperidin-1-yl)methanone]	83%	40%	28%	45%	70%	100%	100%
